{"source": "patent US20130296311A1", "about": "“INHIBITORS OF HCV NS5A” (PRESIDIO PHARMACEUTICALS, INC., priority 2010, published 2013)", "system": "HCV 1b_Huh-Luc/Neo-ET cell line persistently expressing a bicistronic genotype 1b replicon in Huh 7 cells", "assay": "HCV replicon assay (luciferase readout, 72 h)", "type": "cell-based, HCV genotype 1b", "conditions": "Hepatitis C virus, Huh-7, 72 h, read-out: Inhibition of HCV genotype 1b", "outline": "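EC50 values come from a four-parameter fit of luciferase signal as % of untreated control, repeated across several determinations. The signal is from the HCV 1b_Huh-Luc/Neo-ET replicon line, dosed in triplicate one day post-plating and incubated 72 h before Bright-Glo readout.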", "data": [{"smiles": "COC(=O)N[C@H](C(=O)N1CCC[C@H]1c1ncc(-c2ccc(C#Cc3ccc(-c4cnc([C@@H]5CCCN5C(=O)[C@@H](NC(=O)OC)C(C)(C)O)[nH]4)cc3)cc2)[nH]1)C(C)C", "note": "[Compound 994]", "values": [{"measurement": "EC50", "value": "< 1", "unit": "nM"}]}, {"smiles": "COC(=O)N[C@H](C(=O)N1CCC[C@H]1c1ncc(-c2ccc(C#Cc3ccc(-c4cnc([C@@H]5CCCN5C(=O)[C@@H](Nc5cccnc5)C(C)C)[nH]4)cc3)cc2)[nH]1)C(C)C", "note": "[Compound 995]", "values": [{"measurement": "EC50", "value": "< 1", "unit": "nM"}]}, {"smiles": "COC(=O)N[C@H](C(=O)N1CCC[C@H]1c1ncc(-c2ccc(C#Cc3ccc(-c4cnc([C@@H]5CCCN5C(=O)[C@H](C(C)C)N5CCOC5=O)[nH]4)cc3)cc2)[nH]1)C(C)C", "note": "[Compound 996]", "values": [{"measurement": "EC50", "value": "< 1", "unit": "nM"}]}, {"smiles": "CNC(=O)N[C@@H](C(=O)N1CCC[C@H]1c1ncc(-c2ccc(C#Cc3ccc(-c4cnc([C@@H]5CCCN5C(=O)[C@H](NC(=O)C5CC5)c5ccccc5)[nH]4)cc3)cc2)[nH]1)c1ccccc1", "note": "[Compound 997]", "values": [{"measurement": "EC50", "value": "< 1", "unit": "nM"}]}, {"smiles": "C[C@@H]1OC(=O)N[C@H]1C(=O)N1CCC[C@H]1c1ncc(-c2ccc(C#Cc3ccc(-c4cnc([C@@H]5CCCN5C(=O)[C@@H]5NC(=O)O[C@H]5C)[nH]4)cc3)cc2)[nH]1", "note": "[Compound 1000]", "values": [{"measurement": "EC50", "value": "10 to 999", "unit": "nM"}]}, {"smiles": "COC(=O)N[C@H](C(=O)N1CCC[C@H]1c1ncc(-c2ccc(C#Cc3ccc(-c4cnc([C@@H]5CCCN5C(=O)[C@@H](NC5CCOCC5)C(C)C)[nH]4)cc3)cc2)[nH]1)C(C)C", "note": "[Compound 1001]", "values": [{"measurement": "EC50", "value": "1 to 9.9", "unit": "nM"}]}, {"smiles": "COC(=O)N[C@H](C(=O)N1CCC[C@H]1c1ncc(-c2ccc(C#Cc3ccc(-c4cnc([C@@H]5CCCN5C(=O)[C@H](NC(=O)OC)c5ccccc5)[nH]4)cc3)cc2)[nH]1)C(C)C", "note": "[Compound 1002]", "values": [{"measurement": "EC50", "value": "< 1", "unit": "nM"}]}, {"smiles": "COC(=O)N[C@H](C(=O)N1CCC[C@H]1c1ncc(-c2ccc(C#Cc3ccc(-c4cnc([C@@H]5CCCN5C(=O)[C@@H](Nc5ncccn5)C(C)C)[nH]4)cc3)cc2)[nH]1)C(C)C", "note": "[Compound 1003]", "values": [{"measurement": "EC50", "value": "< 1", "unit": "nM"}]}, {"smiles": "COC(=O)N[C@@H](C)C(=O)N1CCC[C@H]1c1ncc(-c2ccc(C#Cc3ccc(-c4cnc([C@@H]5CCCN5C(=O)[C@H](NC(=O)OC)c5ccccc5)[nH]4)cc3)cc2)[nH]1", "note": "[Compound 1004]", "values": [{"measurement": "EC50", "value": "< 1", "unit": "nM"}]}, {"smiles": "COC(=O)N[C@@H](C(=O)N1CCC[C@H]1c1ncc(-c2ccc(C#Cc3ccc(-c4cnc([C@@H]5CCCN5C(=O)[C@H](C(C)C)N5CCOC5=O)[nH]4)cc3)cc2)[nH]1)c1ccccc1", "note": "[Compound 1005]", "values": [{"measurement": "EC50", "value": "< 1", "unit": "nM"}]}, {"smiles": "CC(C)[C@@H](C(=O)N1CCC[C@H]1c1ncc(-c2ccc(C#Cc3ccc(-c4cnc([C@@H]5CCCN5C(=O)[C@H](C(C)C)N5CCOC5=O)[nH]4)cc3)cc2)[nH]1)N1CCOC1=O", "note": "[Compound 1006]", "values": [{"measurement": "EC50", "value": "10 to 999", "unit": "nM"}]}, {"smiles": "COC(=O)N[C@H](C(=O)N1CCC[C@H]1c1ncc(-c2ccc(C#Cc3ccc(-c4cnc([C@@H]5CCCN5C(=O)[C@@H](c5ccccc5)N5CCOC5=O)[nH]4)cc3)cc2)[nH]1)C(C)C", "note": "[Compound 1007]", "values": [{"measurement": "EC50", "value": "< 1", "unit": "nM"}]}, {"smiles": "COC(=O)N[C@@H](C)C(=O)N1CCC[C@H]1c1ncc(-c2ccc(C#Cc3ccc(-c4cnc([C@@H]5CCCN5C(=O)[C@@H](c5ccccc5)N5CCOC5=O)[nH]4)cc3)cc2)[nH]1", "note": "[Compound 1008]", "values": [{"measurement": "EC50", "value": "< 1", "unit": "nM"}]}, {"smiles": "COC(=O)N[C@H](C(=O)N1CCC[C@H]1c1ncc(-c2ccc(C#Cc3ccc(-c4cnc([C@@H]5CCCN5C(=O)[C@@H](NC(=O)OC)C(C)C)[nH]4)cn3)cc2)[nH]1)C(C)C", "note": "[Compound 1009]", "values": [{"measurement": "EC50", "value": "< 1", "unit": "nM"}]}, {"smiles": "COC(=O)N[C@H](C(=O)N1CCC[C@H]1c1ncc(-c2ccc(C#Cc3ccc(-c4cnc([C@@H]5CCCN5C(=O)[C@@H](NC(=O)OC)C(C)C)[nH]4)c(F)c3)cc2)[nH]1)C(C)C", "note": "[Compound 1011]", "values": [{"measurement": "EC50", "value": "< 1", "unit": "nM"}]}, {"smiles": "COC(=O)N[C@H](C(=O)N1CCC[C@H]1c1ncc(-c2ccc(C#Cc3ccc(-c4cnc([C@@H]5CCCN5C(=O)[C@@H](NC(=O)OC)C5CCOCC5)[nH]4)c(F)c3)cc2)[nH]1)C1CCOCC1", "note": "[Compound 1012]", "values": [{"measurement": "EC50", "value": "< 1", "unit": "nM"}]}, {"smiles": "COC(=O)N[C@@H](C(=O)N1CCC[C@H]1c1ncc(-c2ccc(C#Cc3ccc(-c4cnc([C@@H]5CCCN5C(=O)[C@H](NC(=O)OC)c5ccccc5)[nH]4)c(F)c3)cc2)[nH]1)c1ccccc1", "note": "[Compound 1013]", "values": [{"measurement": "EC50", "value": "< 1", "unit": "nM"}]}]}
